The values below come from PMC11217349, “Development of Nurr1 agonists from amodiaquine by scaffold hopping and fragment growing” (Communications Chemistry, 2024).

Values joined by “and” are separate entries in the source; they are usually repeats but may differ in a detail not shown here. Equal entries are not always repeated.

In one data set the test system is N27 rat neurons. Nature of the data set: WST-8 cytotoxicity assay, N27. The format is cell-based. The method, then:
(§1) Each sample was prepared in four biologically independent repeats. After incubation for 24 h, the medium was refreshed and 10% water-soluble tetrazolinum salt (Cell Counting Kit-8, MedChemExpress) was added to assess metabolic activity. After 4 h, absorbance was measured at 450 nm using a Tecan Spark Cyto instrument (Tecan).

The next data set has as its system HEK293T cells. The data set can be described thus: WST-8 cytotoxicity assay, HEK293T. The format is cell-based, human. To be noted: for rel. absorbance (450 nm): HEK293T, WST-8, vs DMSO ctrl. The method, then: as §1
Background: Formazan colour is commonly taken as a measure of viable cells.

The subject of the next data set is Nurr1. More on the design: method as in PMID 26124091. To be noted: read-out: EC50 (Nurr1 agonism); cited from earlier work.
Data set [1] has as its target T1, human Nurr1 (hinge region and ligand binding domain) (Homo sapiens, UniProt P43354).
T1 construct: expressed in transfected cells; host or cells: HEK293T
Nature of the data set: Gal4-Nurr1 hybrid reporter gene assay. It counts as cell-based. How it is done: (§2) Nurr1 modulation was determined in a Gal4 hybrid reporter gene assay in HEK293T cells (German Collection of Microorganisms and Cell Culture GmbH, DSMZ) using pFR-Luc (Stratagene, La Jolla, CA, USA; reporter), pRL-SV40 (Promega, Madison, WI, USA; internal control) and pFA-CMV-hNurr1-LBD[14], coding for the hinge region and ligand binding domain of the canonical isoform of human Nurr1. […] After 24 h, the medium was changed to Opti-MEM without supplements, and cells were transiently transfected using Lipofectamine LTX reagent (Invitrogen, Carlsbad, CA, USA) according to the manufacturer’s protocol. Five hours after transfection, cells were incubated with the test compounds in Opti-MEM supplemented with penicillin (100 U/mL), streptomycin (100 μg/mL), and 0.1% DMSO for 16 h before luciferase activity was measured using the Dual-Glo Luciferase Assay System (Promega) according to the manufacturer’s protocol on a Tecan Spark luminometer (Tecan Deutschland GmbH, Crailsheim, Germany). Firefly luminescence was divided by Renilla luminescence and multiplied by 1000 resulting in relative light units (RLU) to normalize for transfection efficiency and cell growth. Fold activation was obtained by dividing the mean RLU of the test compound by the mean RLU of the untreated control. All samples were tested in at least three biologically independent experiments in duplicates. For dose-response curve fitting and calculation of EC50 values, the equation “[Agonist] vs. response -- Variable slope (four parameters)” was used in GraphPad Prism (version 7.00, GraphPad Software, La Jolla, CA, USA). Selectivity profiling was performed with identical procedures using pFA-CMV-Nur77-LBD[14], pFA-CMV-NOR-1-LBD[14], pFA-CMV-THRα-LBD[51], pFA-CMV-RARα-LBD[52], pFA-CMV-PPARα-LBD[53], pFA-CMV-PPARγ-LBD[53], pFA-CMV-PPARδ-LBD[53], pFA-CMV-LXRα-LBD[54], pFA-CMV-FXR-LBD[55] and pFA-CMV-hRXRα-LBD[56].

For a further data set, the target named is T2, Nurr1 LBD (Homo sapiens, UniProt P43354).
T2 construct: Nurr1 LBD protein (5–30 µM, expressed as described previously[21]); made in house
Nature of the data set: Isothermal titration calorimetry (ITC). To be noted: 25 °C. The format is binding. How it is done:
ITC experiments were conducted on an Affinity ITC instrument (TA Instruments, New Castle, DE) at 25 °C with a stirring rate of 75 rpm. Nurr1 LBD protein (5–30 µM, expressed as described previously[21]) in buffer (20 mM Tris pH 7.5, 100 mM NaCl, 5% glycerol) containing 1–4% DMSO was titrated with the test compounds (30–150 μM in the same buffer containing 1-4% DMSO) in 26 injections (1 × 1 µL, 25 × 3-4 μL) with an injection interval of 120-150 s. As control experiments, the test compounds were titrated to the buffer, and the buffer was titrated to the Nurr1 LBD protein under otherwise identical conditions. Results were analyzed using NanoAnalyze software (version 3.11.0, TA Instruments, New Castle, DE) with independent binding models.
For orientation: Isothermal titration calorimetry measures the heat released or taken up as one component is titrated into another.

The target of the next data set is T3, Nur77 (Homo sapiens, UniProt P22736).
T3 construct: chimeric receptors composed of the Gal4-DBD and the hinge region and LBD; expressed in transfected cells; host or cells: HEK293T
Nature of the data set: Gal4-Nur77 hybrid reporter gene assay. It counts as cell-based. To be noted: 10 nM to 3 µM. The method, then: as §2
A general note: A reporter such as luciferase makes a cellular process visible.

The target in the next data set is T4, NOR-1 (Homo sapiens, UniProt Q92570).
T4 construct: chimeric receptors composed of the Gal4-DBD and the hinge region and LBD; expressed in transfected cells; host or cells: HEK293T
T4 sequence (Q92570 394-623 limits assumed): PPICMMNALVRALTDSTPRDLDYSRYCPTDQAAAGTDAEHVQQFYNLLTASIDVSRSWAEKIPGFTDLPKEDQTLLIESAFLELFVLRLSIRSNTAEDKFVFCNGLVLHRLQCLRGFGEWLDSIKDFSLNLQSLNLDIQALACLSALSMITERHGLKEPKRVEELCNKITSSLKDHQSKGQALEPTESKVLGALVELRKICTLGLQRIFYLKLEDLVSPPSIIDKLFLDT
The data set can be described thus: Gal4-NOR-1 hybrid reporter gene assay. It counts as cell-based. To be noted: 10 nM to 3 µM. The method, then:
as §2

Data set [2] deals with T5, human full-length Nurr1 monomer (NBRE) (Homo sapiens, UniProt P43354).
T5 construct: The full-length human nuclear receptor Nurr1 (pcDNA3.1-hNurr1-NE; Addgene plasmid #102363); host or cells: HEK293T
Nature of the data set: Full-length Nurr1 reporter gene assay (NBRE). The format is cell-based. To be noted: 10 nM to 3 µM. The source says: (§3) Activation of full-length human Nurr1 was studied in transiently transfected HEK293T cells using the reporter plasmids pFR-Luc-NBRE[14], pFR-Luc-POMC[14] or pFR-Luc-DR5[14] each containing one copy of the respective human Nurr1 response element NBRE Nl3, NurRE, or DR5. The full-length human nuclear receptor Nurr1 (pcDNA3.1-hNurr1-NE; Addgene plasmid #102363) and, for DR5, RXRα (pSG5-hRXR)[57] were overexpressed. pRL-SV40 (Promega) was used for the normalization of transfection efficacy and to observe test compound toxicity. […] After 24 h, the medium was changed to Opti-MEM without supplements, and cells were transiently transfected using Lipofectamine LTX reagent (Invitrogen) according to the manufacturer’s protocol. Five hours after transfection, cells were incubated with the test compounds in Opti-MEM supplemented with penicillin (100 U/mL), streptomycin (100 μg/mL) and 0.1% DMSO for 16 h before luciferase activity was measured using the Dual-Glo Luciferase Assay System (Promega) according to the manufacturer’s protocol on a Tecan Spark luminometer (Tecan Deutschland GmbH). Firefly luminescence was divided by Renilla luminescence and multiplied by 1000 resulting in relative light units (RLU) to normalize for transfection efficiency and cell growth. Fold activation was obtained by dividing the mean RLU of the test compound by the mean RLU of the untreated control. All samples were tested in at least three biologically independent experiments in duplicates. For dose-response curve fitting and calculation of EC50 values, the equation “[Agonist] vs. response -- Variable slope (four parameters)” was used in GraphPad Prism (version 7.00, GraphPad Software).

The target of data set [3] is T6, human full-length Nurr1 homodimer (NurRE) (Homo sapiens, UniProt P43354).
T6 construct: The full-length human nuclear receptor Nurr1 (pcDNA3.1-hNurr1-NE; Addgene plasmid #102363); host or cells: HEK293T
The data set can be described thus: Full-length Nurr1 reporter gene assay (NurRE). It counts as cell-based. To be noted: 10 nM to 3 µM.
Description: as §3

The target in data set [4] is T7, Nurr1-RXR heterodimer (DR5) (Homo sapiens, UniProt P43354).
T7 construct: The full-length human nuclear receptor Nurr1 (pcDNA3.1-hNurr1-NE; Addgene plasmid #102363); host or cells: HEK293T
The data set can be described thus: Full-length Nurr1 reporter gene assay (DR5). It counts as cell-based. To be noted: 10 nM to 3 µM. The method, then: Activation of full-length human Nurr1 was studied in transiently transfected HEK293T cells using the reporter plasmids pFR-Luc-NBRE[14], pFR-Luc-POMC[14] or pFR-Luc-DR5[14] each containing one copy of the respective human Nurr1 response element NBRE Nl3, NurRE, or DR5. […] After 24 h, the medium was changed to Opti-MEM without supplements, and cells were transiently transfected using Lipofectamine LTX reagent (Invitrogen) according to the manufacturer’s protocol. Five hours after transfection, cells were incubated with the test compounds in Opti-MEM supplemented with penicillin (100 U/mL), streptomycin (100 μg/mL) and 0.1% DMSO for 16 h before luciferase activity was measured using the Dual-Glo Luciferase Assay System (Promega) according to the manufacturer’s protocol on a Tecan Spark luminometer (Tecan Deutschland GmbH). Firefly luminescence was divided by Renilla luminescence and multiplied by 1000 resulting in relative light units (RLU) to normalize for transfection efficiency and cell growth. Fold activation was obtained by dividing the mean RLU of the test compound by the mean RLU of the untreated control. All samples were tested in at least three biologically independent experiments in duplicates. For dose-response curve fitting and calculation of EC50 values, the equation “[Agonist] vs. response -- Variable slope (four parameters)” was used in GraphPad Prism (version 7.00, GraphPad Software).

Data set [5] relates to full-length human Nurr1 (NBRE). More on the design: method as in earlier work. To be noted: cited from earlier work.

T1 sequence (P43354 360-595 limits assumed): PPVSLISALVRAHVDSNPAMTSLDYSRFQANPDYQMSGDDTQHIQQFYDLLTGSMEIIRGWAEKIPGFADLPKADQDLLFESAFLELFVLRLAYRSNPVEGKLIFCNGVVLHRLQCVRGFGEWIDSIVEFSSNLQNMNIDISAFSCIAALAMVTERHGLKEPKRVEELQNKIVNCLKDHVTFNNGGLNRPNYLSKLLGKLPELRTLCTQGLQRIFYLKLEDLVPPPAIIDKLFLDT
T7 sequence (P43354 whole entry): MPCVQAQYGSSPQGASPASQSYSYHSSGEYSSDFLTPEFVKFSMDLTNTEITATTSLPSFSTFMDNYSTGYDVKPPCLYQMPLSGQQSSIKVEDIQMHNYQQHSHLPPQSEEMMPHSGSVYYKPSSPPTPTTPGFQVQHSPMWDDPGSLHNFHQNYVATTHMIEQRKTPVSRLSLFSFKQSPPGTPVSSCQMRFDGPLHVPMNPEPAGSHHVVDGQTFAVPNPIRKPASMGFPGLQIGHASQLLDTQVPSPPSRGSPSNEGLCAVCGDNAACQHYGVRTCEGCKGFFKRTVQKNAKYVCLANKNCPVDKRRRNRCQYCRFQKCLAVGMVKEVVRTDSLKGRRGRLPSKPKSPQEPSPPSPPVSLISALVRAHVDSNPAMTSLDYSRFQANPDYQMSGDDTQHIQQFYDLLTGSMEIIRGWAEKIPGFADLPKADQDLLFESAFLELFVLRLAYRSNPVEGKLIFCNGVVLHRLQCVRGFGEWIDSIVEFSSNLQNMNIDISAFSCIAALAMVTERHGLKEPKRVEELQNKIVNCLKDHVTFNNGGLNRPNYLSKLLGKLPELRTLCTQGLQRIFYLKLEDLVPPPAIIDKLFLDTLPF
T7 sequence (P19793 whole entry partner): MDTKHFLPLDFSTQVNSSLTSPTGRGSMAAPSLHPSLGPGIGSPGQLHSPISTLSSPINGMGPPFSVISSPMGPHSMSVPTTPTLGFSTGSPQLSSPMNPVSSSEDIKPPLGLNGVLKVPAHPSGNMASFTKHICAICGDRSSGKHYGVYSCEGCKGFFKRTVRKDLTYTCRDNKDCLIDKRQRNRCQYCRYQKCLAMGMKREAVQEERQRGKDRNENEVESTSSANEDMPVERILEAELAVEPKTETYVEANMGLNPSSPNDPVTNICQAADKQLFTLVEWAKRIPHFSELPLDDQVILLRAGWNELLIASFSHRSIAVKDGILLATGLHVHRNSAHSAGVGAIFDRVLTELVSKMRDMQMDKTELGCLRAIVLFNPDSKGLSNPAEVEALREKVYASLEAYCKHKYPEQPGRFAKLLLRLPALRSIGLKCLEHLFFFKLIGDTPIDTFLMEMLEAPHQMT
T5 sequence (P43354 whole entry): as the sequence (P43354 whole entry) above
T6 sequence (P43354 whole entry): as above
T3 sequence (P22736 360-595 limits assumed): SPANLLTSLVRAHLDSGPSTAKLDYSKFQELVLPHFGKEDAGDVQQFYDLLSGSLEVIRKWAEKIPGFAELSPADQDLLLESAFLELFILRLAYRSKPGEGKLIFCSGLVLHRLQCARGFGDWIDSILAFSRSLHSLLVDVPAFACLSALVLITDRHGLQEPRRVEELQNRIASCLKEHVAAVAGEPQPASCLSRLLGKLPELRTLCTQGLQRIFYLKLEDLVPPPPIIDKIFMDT
T2 sequence (P43354 360-595 limits assumed): as the sequence (P43354 360-595 limits assumed) above

The EC50 is the concentration needed to bring the measured effect to its halfway point. Regarding `CCN(CC)Cc1cc(Nc2ccnc3cc(Cl)ccc23)ccc1O` [AQ, amodiaquine], the “rel. absorbance (450 nm)” value in the data set on N27 rat neurons (N27, 10 µM, WST-8, vs DMSO ctrl) was 37% and 39% and 40%; in the data set with HEK293T cells (10 µM) it was 75% and 70%; in the data set on HEK293T cells (30 µM), 47%. Further, the “rel. absorbance (450 nm) / remaining metabolic activity” value in the data set on N27 rat neurons (N27, 30 µM, WST-8, vs DMSO ctrl) was 21% and 22% and 23%. Further, the “toxicity (WST-8)” value is “toxic” in the data set on N27 rat neurons (N27 rat neurons, 24 h) and “toxic” with HEK293T cells (HEK293T cells, 24 h). For the same molecule, in the data set with Nurr1, the EC50 is approximately 20 µM.

Consider `CC(C)(O)c1cccc(-c2ccc3nc(-c4ccc(Cl)cc4)cn3c2)c1` [SA00025, reference compound], for which the “activation of Nurr1” value in data set [1] (Gal4 hybrid reporter, 10 nM to 3 µM) is given as “No activation”. Moreover, the “cytotoxicity in reporter gene assays” value in data set [1] (concentrations higher than 3 µM, drop in renilla luciferase control, HEK293T) is “considerably cytotoxic”. Further, the “Kd (Nurr1 LBD)” value on Nurr1 LBD is given as “potential weak binding”. Also, the “activation of Nur77” value at Nur77 is given as “No activation”. Moreover, the “activation of NOR1” value on NOR-1 was “No activation”. In addition, in data set [2], the “activation of full-length Nurr1 on NBRE” value was “no effect and no”. Also, in data set [3], the “activation of full-length Nurr1 on NurRE” value is “no effect and no”. Moreover, the “activation of full-length Nurr1 on DR5” value in data set [4] is “no effect and no”. In addition, the EC50 in [5] is 0.217 µM.
